Results on 1 substance are retold here after patent US9308238B2, “Compositions and methods for modulating EMT and uses thereof” (Whitehead Institute for Biomedical Research, priority 2010, dated 2016).

Assay type in all cases: cell-based, human
Assay [1] has as its system HMLE^24+ cells. Put plainly: RT-PCR / immunoblot of EMT markers and EMT-TFs in HMLE^24+ cells. The method, then:
FIGS. 5A-5H. Concomitant stimulation of Wnt and TGF-beta pathways allows HMLE^24+ cells to enter into a mesenchymal and SC-like state. (FIG. 5A) RT-PCR: N-Cadherin, Zeb1 and Zeb2, L32 was loading control, n=3. Prior RNA isolation, HMLE^24+-shGFP or -shSFRP1 (stable knockdown of SFRP1, FIG. 12A) cells were treated for 3 days with daily doses of indicated factors: anti-DKK1 antibody (10 μg/ml), anti-E-Cadherin antibody (1 μg/ml), TGF-beta 1 (5 ng/ml), Wnt5a (250 ng/ml), (FIG. 5B) Brightfield microscopy: images of control, TGF-beta- and iEMT-cocktail treated HMLE^24+ cells after 14 days of treatment as indicated (see also FIG. 12D). (FIG. 5C) RT-PCR: Zeb1, Zeb2, E-Cadherin and N-Cadherin, L32 was loading control, n=3. After 14 day treatment, cells were expanded in absence of further stimulation for 4 passages. […] (FIG. 5G) Lung metastasis: cells expanded for 8 passages after cessation of treatment as described in (C) were transformed with RAS; 1.0×10^5 cells were injected into the mammary fat pads of mice; GFP-labeled metastases on the surface of the lungs were quantified; *control vs. all other groups, p<0.05, n=5 mice/group. […]
Immunoblots. Protein was extracted with RIPA lysis buffer and concentration determined by the Lowry assay (Biorad). […]

Assay [2] concerns HMLE^24+ cells. As to the kind of experiment: Proliferation in adherent monolayer cultures after 14 day treatment. The settings on record: after cessation of 14 day treatment. The source says: FIGS. 12A-12F. Concomitant stimulation of Wnt and TGF-beta pathways allows HMLE^24+ cells to enter into a mesenchymal and SC-like state. (FIG. 12A) RT-PCR: SFRP1, L32 was loading control, n=3; SFRP1 mRNA levels in HMLE^24+ stably expressing two hairpin-encoding vectors (shSFRP1a and -b) compared cells expressing a control hairpin targeting GFP (shGFP), HMLE^24+-shSFRP1b were used for iEMT experiments. (FIG. 12B) Flow cytometry: Expression of CD44 and CD24 cell-surface markers in HMLE, HMLE^24+-shGFP and -shSFRP1 cells. […] (FIG. 12F) Growth curves: proliferation of indicated cell lines was monitored by the MTS assay for 3 days, 8 passages after cessation of 14 day treatment as described in (D), n=12.
Proliferation Assays. […] Cell viability was measured using CellTiter-Glo (Promega) according to the manufacturer's instructions.

Another assay deals with luminal MECs. Put plainly: Growth curve of luminal cells in monolayers. The settings on record: luminal cultures. The method, then:
FIGS. 14A-14D. Modulation of migratory and self-renewal abilities in basal and luminal MECs. (FIG. 14A) Growth curve: basal cells treated every 48 hrs with indicated factors, TGF-beta-type 1 receptor inhibitors A83-01 and SB431542 (10 μM), SFRP1 (1 μg/ml); cells were counted at indicated time points, n=2. (FIG. 14B) Growth curve: luminal cells treated every 48 hrs with indicated factors, TGF-beta 1 (5 ng/ml), Wnt5a (250 ng/ml), anti-DKK1-(10 μg/ml) and anti-E-Cadherin antibodies (1 μg/ml) or a combination of all factors (iEMT-II); cells were counted at indicated time points, n=2, (FIG. 14C) Microscopy images of basal cells treated as described in (A), at 4 days/before first passage. (FIG. 14D) Microscopy images of luminal cells treated as described in (B), at 4 days/before first passage.
Primary mammary epithelial cell culture. Single-cell suspensions of primary human mammary epithelial cells (MECs) were generated from reduction mammoplasties of pre-menopausal women as previously described (Stingl et al., 2001), Data from three donors are included in this study. Primary MECs were cultured on collagen I-coated plates (Millipore) in MEGM medium (Lonza) supplemented with 1% Fetal Bovine Serum in a humidified 4% O2, 5% CO2, atmosphere.

In the case of “TGF-beta 1: recombinant TGF-beta 1 protein, used at 5 ng/ml”, in the assay on HMLE^24+ cells [1] (3 days treatment), the “induction of N-Cadherin, Zeb1 or Zeb2” value was “did not result in a significant induction”. The E-/N-Cadherin expression result in the assay on HMLE^24+ cells [1] (14 day treatment, then expanded without stimulation) was “marginal upregulation of N-Cadherin”. The “proliferation rates in adherent monolayer cultures” value in the assay with HMLE^24+ cells [2] was “stably lower”. Besides, the proliferation in monolayers result with luminal MECs is on record as “significantly reduced”.
